Values after ≈ are worked out from the molar mass of the structure shown.

Data set [1] deals with adult house fly (Musca domestica). The data set is described as follows: whole plant or invertebrate. As to conditions: topical, 24 h, read-out: Percentage mortality at 24 h.
Data set [2] shares this test system. As to conditions: in vivo.
For data set [3], the system named is lesser grain borer (Rhizopertha dominica). The following applies: in vivo.
Data set [4] has as its system brine shrimp (Artemia franciscana). The data set is described as follows: whole plant or invertebrate.
The subject of data set [5] is adult house fly (Musca domestica). As to conditions: in vivo. This is another data set of the same source.

Consider `C=CC1CNC(=S)O1` (stereo not shown) [Goitrin, goitrin], for which, in data set [1], the mortality at 1 µg/fly is 5% and the mortality at 100 µg/fly is 5%.
For `C=CC(C#N)OC(=O)C(C)(C)C` (stereo not shown) [CHP-Piv, CHP pivalate], the LC50 was found to be 1.37 µg/mL (≈ 8.19 µM) in data set [2] and 2.4 µg/mL (≈ 14.4 µM) in data set [3]. Besides, the mortality at 9.9 µg/fly in data set [1] came out at 0%. The mortality at 99 µg/fly in data set [1] was determined as 80%.
In data set [4], `C=CC(C#N)OC(=O)CCCCCCCCC` (stereo not shown) [CHP decanoate] had a mortality at 1 ppm of 15%, a mortality at 10 ppm of 95% and a mortality at 100 ppm of 100%. In data set [1], the mortality at 1 µg/fly is 0%, the mortality at 10 µg/fly is roughly 50% and the mortality at 100 µg/fly is 100%.
For `CC(C)C(C)(O)C#N` (stereo not shown) [3-methylbutanone cyanohydrin], the LC50 in data set [2] and in data set [3] was greater than 20 µg/mL in each case.
Consider `CC(C)=CCCC(C)CC(O)C#N` (stereo not shown) [citronellyl cyanohydrin], for which the “effectiveness as topical pesticide” value in data set [5] was “not active”. Also, in data set [1], the mortality at 6 µg/fly worked out at 14% and the mortality at 50 µg/fly was found to be 10%.
The molecule `C=C(C)[C@H]1Cc2c(ccc3c2O[C@@H]2COc4cc(OC)c(OC)cc4[C@@H]2C3=O)O1` [rotenone, reference compound] gave a mortality at 1 ppm in data set [4] of 100%.
As for `N#CC1(O)C=CCCC1` (stereo not shown) [2-cyclohexen-1-one cyanohydrin], the LC50 in data set [2] and in data set [3] was greater than 20 µg/mL each time.
For the molecule `N#CC(O)/C=C/c1ccccc1` (stereo not shown) [cinnamyl cyanohydrin], the “effectiveness as topical pesticide” value in data set [5] was “relatively weak”. In data set [4], this molecule registered a mortality at 1 ppm of 25%, a mortality at 10 ppm of 15% and a mortality at 100 ppm of 100%. Also, in data set [1], the mortality at 6 µg/fly came out at 9% and the mortality at 50 µg/fly turned out to be 100%.
Take `CCCC(C)C(O)C#N` (stereo not shown) [2-methylvaleraldehyde cyanohydrin]: the LC50 in data set [2] and in data set [3] was greater than 20 µg/mL each time.
For `C=CC(C#N)OC(=O)CC` (stereo not shown) [CHP-Pro, CHP propionate], in data set [2], the LC50 was found to be 0.66 µg/mL (≈ 4.74 µM) and the “times less effective than dichlorvos” value was “about 60 times”. In addition, in data set [3], the LC50 is 0.70 µg/mL (≈ 5.03 µM) and the “times less effective than dichlorvos” value is recorded as “about 2.5 times”. In addition, in data set [1], the mortality at 9.7 µg/fly came to 0% and the mortality at 97 µg/fly was found to be 100%.
In data set [3], `COP(=O)(OC)OC=C(Cl)Cl` [dichlorvos, reference compound] displayed an LC50 of 0.29 µg/mL (≈ 1.31 µM). The mortality at 1 µg/fly in data set [1] was 95%.
On to “methyl ethyl ketone cyanohydrin [MEK-CNOH]”, for which the LC50 is 0.09 µg/mL in data set [2] and 0.27 µg/mL in data set [3].
Regarding `CC=C(C)C(O)C#N` (stereo not shown) [2-methyl-2-butenal cyanohydrin], the LC50 in data set [2] and in data set [3] was greater than 20 µg/mL in each case.
For the molecule `CCC(C)C(O)C#N` (stereo not shown) [2-methylbutyraldehyde cyanohydrin], the LC50 in data set [2] and in data set [3] was greater than 20 µg/mL each time.
Regarding `CC(C)(O)C#N` [DMK-CNOH, dimethyl ketone cyanohydrin], the values for the LC50 in data set [2] and in data set [3] were less than 0.07 µg/mL and 0.25 µg/mL (≈ 2.94 µM), respectively.
As to `N#CC(O)c1ccccc1[N+](=O)[O-]` (stereo not shown) [2-nitromandelonitrile cyanohydrin], the LC50 in data set [2] and in data set [3] was greater than 20 µg/mL throughout.
In data set [4], `CC(C)=CCCC(C)CC(=O)O` (stereo not shown) [citronellic acid, reference compound] registered a mortality at 1 ppm of 40%, a mortality at 10 ppm of 65% and a mortality at 100 ppm of 100%. In data set [1], the mortality at 1 µg/fly stood at 0%, the mortality at 10 µg/fly was 91% and the mortality at 100 µg/fly amounted to 100%.

These data come from patent US6545043B1 (priority 1997, dated 2003).
